Experimental data: the supplement of paper PMC10307832

Assays:
Assay in all cases: relative viability (nuclei count vs DMSO), 5 days (fraction); higher = more cells survive
VX-11e + Pemetrexed = compound: CC1=CN=C(N=C1C2=CNC(=C2)C(=O)N[C@H](CO)C3=CC(=CC=C3)Cl)NC4=C(C=C(C=C4)F)Cl [VX-11e] + Nc1nc2[nH]cc(CCc3ccc(C(=O)N[C@@H](CCC(=O)O)C(=O)O)cc3)c2c(=O)[nH]1 [Pemetrexed] (partner 0.2 µM)
How it was run: (§1)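 Five library-drug doses in √10 steps were combined with a fixed anchor-drug dose, or a single drug was given alone, by pin tool to lung cancer cell lines in 1536-well plates the day after seeding. Nuclei were stained and counted after 5 days. Relative viability is the nuclei count in treated wells over that in vehicle wells, taken as the median of duplicate plates.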

VX-11e + Dasatinib = compound: CC1=CN=C(N=C1C2=CNC(=C2)C(=O)N[C@H](CO)C3=CC(=CC=C3)Cl)NC4=C(C=C(C=C4)F)Cl [VX-11e] + Cc1nc(Nc2ncc(C(=O)Nc3c(C)cccc3Cl)s2)cc(N2CCN(CCO)CC2)n1 [Dasatinib] (partner 0.075 µM)
How it was run: as §1

VX-11e + Lapatinib = compound: CC1=CN=C(N=C1C2=CNC(=C2)C(=O)N[C@H](CO)C3=CC(=CC=C3)Cl)NC4=C(C=C(C=C4)F)Cl [VX-11e] + CS(=O)(=O)CCNCc1ccc(-c2ccc3ncnc(Nc4ccc(OCc5cccc(F)c5)c(Cl)c4)c3c2)o1 [Lapatinib] (partner 2 µM)
How it was run: as §1

VX-11e + Crizotinib = compound: CC1=CN=C(N=C1C2=CNC(=C2)C(=O)N[C@H](CO)C3=CC(=CC=C3)Cl)NC4=C(C=C(C=C4)F)Cl [VX-11e] + C[C@@H](Oc1cc(-c2cnn(C3CCNCC3)c2)cnc1N)c1c(Cl)ccc(F)c1Cl [Crizotinib] (partner 1 µM)
How it was run: as §1

Cell Line | relative viability (VX-11e + Pemetrexed; first compound 0.04 µM) | relative viability (VX-11e + Pemetrexed; first compound 0.1265 µM) | relative viability (VX-11e + Pemetrexed; first compound 0.4 µM) | relative viability (VX-11e + Pemetrexed; first compound 1.265 µM) | relative viability (VX-11e + Pemetrexed; first compound 4 µM) | relative viability (VX-11e + Dasatinib; first compound 0.04 µM) | relative viability (VX-11e + Dasatinib; first compound 0.1265 µM) | relative viability (VX-11e + Dasatinib; first compound 1.265 µM) | relative viability (VX-11e + Dasatinib; first compound 4 µM) | relative viability (VX-11e + Lapatinib; first compound 0.04 µM) | relative viability (VX-11e + Lapatinib; first compound 0.1265 µM) | relative viability (VX-11e + Lapatinib; first compound 0.4 µM) | relative viability (VX-11e + Lapatinib; first compound 1.265 µM) | relative viability (VX-11e + Lapatinib; first compound 4 µM) | relative viability (VX-11e + Crizotinib; first compound 0.04 µM) | relative viability (VX-11e + Crizotinib; first compound 0.1265 µM) | relative viability (VX-11e + Crizotinib; first compound 0.4 µM) | relative viability (VX-11e + Crizotinib; first compound 1.265 µM) | relative viability (VX-11e + Crizotinib; first compound 4 µM) | relative viability (VX-11e + Dasatinib; first compound 0.4 µM)
NCI-H2228 | 0.337 | 0.371 | 0.363 | 0.311 | 0.183 | 0.591 | 0.578 | 0.351 | 0.188 | 1.23 | 1.17 | 0.158 | 0.691 | 0.309 | 0.533 | 0.524 | 0.463 | 0.263 | 0.303 | 
LC-2-ad | 0.277 | 0.247 | 0.285 | 0.239 | 0.243 | 0.48 | 0.402 | 0.289 | 0.324 | 0.929 | 0.792 | 0.881 | 0.399 | 0.547 | 0.459 | 0.424 | 0.529 | 0.395 | 0.401 | 0.326
HARA | 0.253 | 0.236 | 0.26 | 0.186 | 0.131 | 0.306 | 0.2 | 0.248 | 0.157 | 0.673 | 0.653 | 0.79 | 0.666 | 0.374 | 1.05 | 0.792 | 1.04 | 0.833 | 0.813 | 0.273
PC-14 | 0.132 | 0.108 | 0.148 | 0.134 | 0.112 | 0.359 | 0.237 | 0.319 | 0.109 | 0.275 | 0.327 | 0.251 | 0.35 | 0.203 | 0.993 | 0.916 | 0.861 | 0.878 | 0.506 | 0.168
LCLC-97TM1 | 0.183 | 0.14 | 0.243 |  | 0.171 | 1 | 0.728 | 0.547 | 0.301 | 1.09 | 0.8 |  | 0.226 | 0.171 | 0.396 | 0.383 |  | 0.324 | 0.182 | 0.793
LU99A | 0.184 | 0.138 | 0.201 | 0.182 | 0.188 | 0.505 | 0.562 | 0.252 | 0.199 | 1.03 | 0.913 | 0.864 | 0.253 | 0.235 | 0.527 | 0.496 | 0.517 | 0.475 | 0.243 | 0.261
NCI-H1651 | 0.469 | 0.608 | 0.553 | 0.479 | 0.484 | 0.43 | 0.378 | 0.328 | 0.323 | 0.639 | 0.747 | 0.634 | 0.602 | 0.654 | 0.916 | 0.821 | 0.826 | 0.768 | 0.812 | 0.368
NCI-H460 | 0.0706 | 0.0577 | 0.0649 | 0.0564 | 0.0528 | 0.476 | 0.515 | 0.266 | 0.0901 | 1.13 | 0.85 | 0.823 | 0.542 | 0.0703 | 1.18 | 0.907 | 0.784 | 0.56 | 0.0797 | 0.23
UMC-11 | 0.799 | 0.762 | 0.866 | 0.754 | 0.681 | 0.44 | 0.42 | 0.587 | 0.464 | 0.546 | 0.94 | 0.712 | 0.602 | 0.758 | 0.699 | 0.785 | 0.574 | 0.511 | 0.662 | 0.439
NCI-H1666 | 0.851 | 0.901 |  | 0.756 | 0.6 | 0.855 | 0.87 | 0.688 | 0.477 | 0.713 | 0.99 | 0.467 | 0.43 | 0.388 | 1.03 | 0.818 | 0.753 | 0.752 | 0.456 | 0.69
NCI-H23 | 0.517 | 0.583 | 0.214 | 0.312 | 0.222 | 0.552 | 0.711 | 0.225 | 0.221 | 0.875 | 0.952 | 0.219 | 0.393 | 0.331 | 0.422 | 0.504 | 0.416 | 0.347 | 0.32 | 
